According to PMC7429354, “Potentiating TMEM16A does not stimulate airway mucus secretion or bronchial and pulmonary arterial smooth muscle contraction” (FASEB BioAdvances, 2020):

Experiments:
TMEM16A [1] = molecular target: T1, TMEM16A (Mus musculus, UniProt Q8BHY3); test: QPatch automated whole-cell patch clamp, recombinant channel (potentiator, maximum […] efficacy); assay type: cell-based
T1 construct: gene Ano1; full-length (NM_178642.5), stably expressed in CHO cells
T1 sequence (Q8BHY3 1-960): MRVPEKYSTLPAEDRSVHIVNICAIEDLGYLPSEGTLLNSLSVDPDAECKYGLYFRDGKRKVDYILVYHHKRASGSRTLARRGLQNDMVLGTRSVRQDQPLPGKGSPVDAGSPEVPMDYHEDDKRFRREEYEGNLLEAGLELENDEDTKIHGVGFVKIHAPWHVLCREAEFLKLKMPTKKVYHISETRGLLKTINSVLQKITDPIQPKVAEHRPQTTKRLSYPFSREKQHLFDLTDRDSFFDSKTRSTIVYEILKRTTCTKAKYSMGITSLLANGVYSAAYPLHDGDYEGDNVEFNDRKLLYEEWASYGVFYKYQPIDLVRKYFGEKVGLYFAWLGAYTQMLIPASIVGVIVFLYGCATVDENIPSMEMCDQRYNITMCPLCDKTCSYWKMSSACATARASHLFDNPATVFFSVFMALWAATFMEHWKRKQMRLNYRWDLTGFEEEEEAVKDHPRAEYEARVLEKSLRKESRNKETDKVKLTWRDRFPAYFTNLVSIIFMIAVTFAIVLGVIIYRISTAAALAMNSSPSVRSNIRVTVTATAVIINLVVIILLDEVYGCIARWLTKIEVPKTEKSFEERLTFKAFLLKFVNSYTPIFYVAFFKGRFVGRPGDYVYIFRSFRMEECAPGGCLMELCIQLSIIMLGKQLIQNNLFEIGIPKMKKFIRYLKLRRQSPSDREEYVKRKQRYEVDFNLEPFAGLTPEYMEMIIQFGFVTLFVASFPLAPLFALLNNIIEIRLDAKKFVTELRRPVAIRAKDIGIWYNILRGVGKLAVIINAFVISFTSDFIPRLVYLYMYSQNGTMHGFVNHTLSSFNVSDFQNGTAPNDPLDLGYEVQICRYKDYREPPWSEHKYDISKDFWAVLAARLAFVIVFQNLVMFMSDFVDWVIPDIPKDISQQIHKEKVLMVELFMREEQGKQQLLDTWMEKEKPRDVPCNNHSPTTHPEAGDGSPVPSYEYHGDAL

TMEM16A [2] = molecular target: T2, TMEM16A (Rattus norvegicus, UniProt D4A915); test: as above; assay type: cell-based
T2 construct: gene Ano1; full-length (NM_01107564.1), stably expressed in a cell line
T2 sequence (D4A915 1-1105): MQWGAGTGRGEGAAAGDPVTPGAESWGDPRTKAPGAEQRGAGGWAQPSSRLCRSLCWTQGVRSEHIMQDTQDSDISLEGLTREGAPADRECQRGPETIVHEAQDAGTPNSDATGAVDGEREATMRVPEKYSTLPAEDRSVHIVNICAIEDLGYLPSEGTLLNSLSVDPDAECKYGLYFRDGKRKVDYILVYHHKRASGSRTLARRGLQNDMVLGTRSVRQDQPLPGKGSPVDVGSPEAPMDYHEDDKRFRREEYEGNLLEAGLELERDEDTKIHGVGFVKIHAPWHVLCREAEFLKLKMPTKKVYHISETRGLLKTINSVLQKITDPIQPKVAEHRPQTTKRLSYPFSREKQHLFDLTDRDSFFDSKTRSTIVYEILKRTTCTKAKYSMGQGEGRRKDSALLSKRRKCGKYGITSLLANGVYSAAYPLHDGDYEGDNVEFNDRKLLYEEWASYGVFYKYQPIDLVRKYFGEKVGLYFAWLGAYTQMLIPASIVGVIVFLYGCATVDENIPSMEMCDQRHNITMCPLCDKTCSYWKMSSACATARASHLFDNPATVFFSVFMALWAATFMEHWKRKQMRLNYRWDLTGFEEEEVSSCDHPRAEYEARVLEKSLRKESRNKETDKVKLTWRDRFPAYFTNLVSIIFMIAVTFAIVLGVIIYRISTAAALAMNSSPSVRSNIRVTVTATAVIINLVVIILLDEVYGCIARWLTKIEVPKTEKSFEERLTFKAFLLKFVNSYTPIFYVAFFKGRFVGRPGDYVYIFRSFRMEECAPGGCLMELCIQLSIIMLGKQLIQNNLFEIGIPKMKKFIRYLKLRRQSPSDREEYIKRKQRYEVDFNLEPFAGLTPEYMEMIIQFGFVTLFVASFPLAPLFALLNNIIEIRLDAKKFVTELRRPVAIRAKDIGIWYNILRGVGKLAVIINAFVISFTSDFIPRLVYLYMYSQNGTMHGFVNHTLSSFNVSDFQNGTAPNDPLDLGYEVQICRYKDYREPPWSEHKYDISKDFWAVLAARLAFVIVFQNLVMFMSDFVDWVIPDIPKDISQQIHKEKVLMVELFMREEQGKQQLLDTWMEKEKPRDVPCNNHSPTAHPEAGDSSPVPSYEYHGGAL

Row | Substance | EC50 (TMEM16A [1]) [µM] | EC50 (TMEM16A [2]) [µM]
1 | ETX004 | 0.038 | –
2 | ETX001 | – | 0.088
